Patent US12555809B2, “Additives for fluorenone/fluorenol based aqueous redox flow batteries” (Battelle Memorial Institute, priority 2021, dated 2026)

Experiments:
[1] = cited from earlier work; for H—B pKa: conjugate acid of B^-
[2] = PFG NMR diffusion coefficients (1H, 23Na); assay type: physicochemical; conditions: for D(Na^+): 23Na PFG NMR at 25° C.
Method: Nuclear magnetic resonance spectroscopy: NMR spectra were either collected on a 500 MHz Oxford NMR spectrometer at 25° C. (the system consists of an Oxford AS500 magnet connected to an Agilent Technologies console), or collected on a 400 MHz NMR spectrometer (Bruker 400 MHz Avance III NMR with NanoBay console, equipped with a SampleCase™ autosampler using IconNMR automation. Probe: BBFO 5 mm SmartProbe sensor). Chemical shifts were reported in ppm with the solvent resonance as the internal standard (DMSO, δ=2.50; D2O, δ=4.70; CDCl3, δ=7.26).

[3] = Small-angle X-ray scattering (SAXS) cluster size; assay type: physicochemical; conditions: for Diameter: SAXS
From the text: Small-angle X-ray scattering: Synchrotron SAXS technique is a powerful technique to measure the size of dissolved molecules, clusters, and suspended particles. SAXS resolves the particle size and shape over a wide range of sizes from several Å to hundreds of nm. Considering the small sizes and low electron contrast of β-CD, FL and FLOH relative to solution, there was a focus on collecting data from a scattering vector, q, of 0.05 to 2 Å-1. Small-angle X-ray scattering (SAXS) data was acquired at beamline 12-ID-B of the APS. A constant incident photon energy of 13.3 keV (λ=0.9322 Å) was used to measure samples in transmission through a 2-mm ID silica capillary (Charles Supper SiO2 capillaries, 10 μm wall thickness). Sample-to-detector distance was calibrated using a silver behenate standard. 2D images were recorded using a Pilatus 2M detector (Dectris; pixel size 172×172 μm^2) for five frames at a 1 s exposure time each. Artifacts from static noise were subtracted using detector dark images, which were acquired every ten frames. Solution blanks were acquired identical to the suspension samples and subtracted using a scaling factor of 1. The RAW program from the BioXTAS package was used, as well as SasView and Irena, to integrate the data, average and merge scans, perform background subtractions, and to calculate pair distance distribution functions (PDDF).

[4] = Rotating disk electrode (RDE) study; assay type: physicochemical; conditions: 27S4CFL (5 mM) in 0.1 M β-CD/1 M NaOH
Method: Rotating disk electrode (RDE) measurements (Feng et al., Science 2021, 372:836) were performed using a three-electrode configuration consisting of a glassy carbon working electrode (3 mm diameter), a carbon rod counter electrode and an Ag/AgCl reference electrode. The electrolytes of 5 mM redox-active materials in 1.0 M NaOH were used. Data were collected using a CHI potentiostat at scan rates of 5 mV/s in the potential range of −1.55V˜−0.5V vs Ag/AgCl. The rotation rates were at 300, 600, 900, 1200, 1500, 1800, 2100 and 2400 rpm. […] The Koutecky-Levich plots at different overpotentials were extrapolated to get the kinetic current ik according to the Koutecky-Levich equation:
[formula] The exchange current i0 can be obtained by fitting ik to the Tafel plot at the overpotential of zero, from which the reaction rate constant (k0) was determined according to Butler-Volmer equation: i0=nFACk0 Flow Battery Tests

[5] = pKa of additive / proton acceptor (H—B) and deprotonation of β-CD in alkaline solution; assay type: physicochemical; conditions: 0.1 M β-CD added to 1 M NaOH
From the text: β-(Cyclodextrin)CD was selected as model compound. Not only benefiting from the cavity containing poly-hydroxyl structure, but it also has a pKa at around 13.5, which is similar to the pKa of functionalized fluorenol, rendering a potentially strong H-bonding structure. Based on past studies (Gaidamauskas et al., Carbohydrate Research 2009, 344:250-254) and measurement of β-CD behavior in alkaline solution, this supermolecule experiences two-fold of deprotonation in 1 M NaOH. […] From a battery operation point, β-CD is notable for its redox-inert character and large molecular size, which leaves no concern of crossover and loss of catalyst. From a practical application point, the low-cost and non-toxic merit warrants feasible implementation.

[6] = Battery current response test at controlled voltage; conditions: fully charged electrolyte, 0.9V controlled voltage discharge
Method: The battery of FIG. 13 was constructed similar to above described procedure, except that two consecutive cell stacks were employed (electrolyte flow through the two cells consecutively), one for charging and discharging, one for OCV monitoring. The battery in FIG. 18 was constructed using one cell stack, with additional pump and tubing system circulating ˜3 mL electrolyte through EPR detecting tube at 100 rpm rate. Anolyte was comprised of 12 mL 0.1 M 274FL/1 M NaOH with specified additive at 0.086 M. Catholyte was comprised of 500 mL 0.1 M ferrocyanide/0.05 M ferricyanide/1 M NaOH. Electrolyte was charged until desired SOC reached. Then the discharge current response was measured at controlled voltage of 0.9V. Each measurement was repeated 5 cycles (FIG. 13) and experiments were repeated two times in FIG. 18.

[7] = H-cell oxidation rate measurement (chronocoulometry)
Method: The measurement was conducted with H-cell equipped with Hg/HgO as reference electrode and Glassy carbon electrode as working electrode (0.0707 cm^2). Carbon rod was used as counter electrode. Stir bar was equipped to facilitate mass transfer, so it is not considered as a limiting factor in the measurement of oxidation process. Chronocoulometry method was applied at specified potential for 120 s with IR compensation (CI mode on Gamry) and 1.5 s per data point. Nafion® 212 (soaked in 1 M NaOH at room temperature) was used as separator. Each data point was repeated three times. The electrolyte solution was prepared using the battery charging to specified SOC. The battery was constructed with 8 mL of 0.3 M 274FL/1 eqNaOH/1 M NaOH and 30 mL of 0.3 M potassium ferrocyanide/0.3 M potassium ferricyanide/1 M NaOH. After charged to specified SOC, the anolyte solution was diluted with 1 M NaOH to result a 15 mM active material solution. The catholyte was diluted with 1 M NaOH to result an 8.75 mM potassium ferrocyanide/28.75 mM potassium ferricyanide solution. The solution used for H-cell measurement in each compartment was 5 mL, with addition of specified amount of additive. To prepare deuterated fluorenol, the cell was constructed using NaOD/D2O for both anolyte and catholyte.
Due to well stirred solution and only 120 s measurement with small electrode area, mass transfer and SOC change influence can be considered as neglectable. Thus, a linear relationship was obtained (A condition where neglectable oxidizable material concentration change during testing period). The slope represents an oxidation rate (C/s, average current, unit A) for the solution oxidizable species during that testing period.
A heterogeneous reaction oxidation rate constant (cm/s) at a specified overpotential was calculated based on a pseudo first order reaction model (Hammerich et al., Organic electrochemistry:revised and expanded 2015, CRC Press; Markle et al., Science Advances 2018, 4: eaat5776):
[formula] here “i” unit is A(C/s), A is 0.0707 cm^2. […]

[8] = EPR of comproportionation mixture (FLOH + FL); conditions: 0.001 M FLOH and 0.001 M FL 1:1, 0.001 M β-CD, 20 min after mixing
Method: Electron paramagnetic resonance spectroscopy: EPR measurements were performed on a Bruker ELEXSYS E580 spectrometer at 298 K. The electrolyte solution sample was pulled into a glass capillary (VitroTubes™, ID 0.8 mm and OD 1 mm) using a Hamilton syringe connected through nanotight fittings from Valco Instruments Co. Inc. The capillary was sealed using Critoseal™ Leica Microsystems capillary tube sealant on both ends and was further placed inside a 4 mm EPR tube with the open end sealed inside a glove box filled with nitrogen. All samples were prepared inside the glove box immediately before EPR experiments to minimize the influence of air and moisture. The typical settings for the spectra were microwave frequency=9.324 GHz, sweep time=41.94 s, time constant=5.12 ms, power=0.02 mW, field modulation amplitude=0.05 G, and sweep width=24 G for dilute solutions in order to capture the detailed hyperfine structures but the sweep width was increased to 50 G for relatively concentrated solutions to incorporate their broader line widths. Absolute spin concentrations of the samples were determined by calibration curves of the spin standard TEMPO (2,2,6,6-tetramethyl-1-piperidinyloxyl) with concentrations varying from 0.01 mM to 100 mM, and another spin standard 4-Hydroxy-TEMPO with concentrations varying from 0.1 M to 1.0 M.

[9] = Solubility measurement (saturated solution concentration by NMR); assay type: physicochemical; conditions: with less than 0.1 M β-CD added
Method: A general procedure was applied following below steps. First a supernatant was prepared by mixing solute and solvent with heating, stirring, and centrifugation. The resulting cooled mixture was filtered through 0.2 μm PP membrane filter. The saturated solution concentration was determined by NMR. NMR sample was prepared with mixing 100 μL of saturated solution, 50 μL of internal standard solution (1 M sodium methane sulfonate) and 950 μL D2O.

[10] = ratio of diffusion coefficients

Oc1ccc(O)cc1
H—B pKa [1]: 9.7

O=C(O)c1cc(S(=O)(=O)O)cc2c1-c1ccc(S(=O)(=O)O)cc1C2=O [27S4CFL, 2,7-sulfonate-4-carboxylate fluorenone]
D(FLOH or FL) ([2]; 1H PFG NMR at 25° C.): 1.92 ×10^−10 m^2/s
D(H2O) ([2]; 1H PFG NMR at 25° C.): 12.1 ×10^−10 m^2/s
D(Na^+) [2]: 7.60 ×10^−10 m^2/s
D(FLOH or FL)/D(H2O) [2, 10]: 0.16
D(Na^+)/D(H2O) [2, 10]: 0.63
Diameter [3]: 16.48 ± 0.21 Å Å
calculated diffusion coefficient [4]: 7.56×10^−6 cm^2/s
calculated kinetic reduction rate constant for the first electron [4]: 0.00351 cm/s

OC[C@H]1O[C@@H]2O[C@H]3[C@H](O)[C@@H](O)[C@@H](O[C@H]4[C@H](O)[C@@H](O)[C@@H](O[C@H]5[C@H](O)[C@@H](O)[C@@H](O[C@H]6[C@H](O)[C@@H](O)[C@@H](O[C@H]7[C@H](O)[C@@H](O)[C@@H](O[C@H]8[C@H](O)[C@@H](O)[C@@H](O[C@H]1[C@H](O)[C@H]2O)O[C@@H]8CO)O[C@@H]7CO)O[C@@H]6CO)O[C@@H]5CO)O[C@@H]4CO)O[C@@H]3CO [β-CD, β-cyclodextrin]
hydroxide consumption corresponding to pH decrease [5]: 0.184 M
D(H2O) ([2]; 1H PFG NMR at 25° C.): 13.1 ×10^−10 m^2/s
D(β-CD) ([2]; 1H PFG NMR at 25° C.): 1.57 ×10^−10 m^2/s
D(Na^+) [2]: 8.12 ×10^−10 m^2/s
D(Na^+)/D(H2O) [2, 10]: 0.62
D(β-CD)/D(H2O) [2, 10]: 0.12
Diameter [3]: 11.76 ± 3.94 Å Å
height of the cup ([3]; SAXS RDFs): ~4 Å
width of the cup ([3]; SAXS RDFs): ~12 Å
peak current density relative to blank [6]: 1.6 times
increment of fluorenol oxidation ([7]; H-cell, −0.65V vs Hg/HgO): 1.6 times
KIE value ([7]; applied potential of −0.65V vs Hg/HgO): 2.42
deuterated fluorenol oxidation rate enhancement ([7]; deuterated fluorenol): 1.4 times
reduction of radical concentration estimated from EPR peak intensity [8]: 60%
pKa [1]: around 13.5

O=C(O)c1cccc2c1-c1ccc(S(=O)(=O)[O-])cc1C2=O.[K+] [4C7SFL, 4-carboxylate-7-sulfonate fluorenone/fluorenol]
solubility ([9]; aqueous with cosolvent or surfactant or cyclodextrin, thermodynamic from solid, read-out: measured solubility): ~1900 mM
solubility increase compared with solubility without β-CD [9]: ~30%
volumetric capacity corresponding to solubility [9]: 101.8 Ah/L

OCC(F)(F)F [CF3CH2O]
H—B pKa [1]: 11.4-12.4

O=C(O)c1cc(S(=O)(=O)O)cc2c1-c1ccc(S(=O)(=O)O)cc1C2O (centres unmarked) [FLOH, 2,7-sulfonate-4-carboxylate fluorenol]
D(FLOH - H6) ([2]; 1H PFG NMR at 25° C.): 2.43 ×10^−10 m^2/s
D(FLOH or FL) ([2]; 1H PFG NMR at 25° C.): 2.45 ×10^−10 m^2/s
D(H2O) ([2]; 1H PFG NMR at 25° C.): 13.6 ×10^−10 m^2/s
D(Na^+) [2]: 6.72 ×10^−10 m^2/s
D(FLOH or FL)/D(H2O) [2, 10]: 0.18
D(Na^+)/D(H2O) [2, 10]: 0.49
Diameter [3]: 12.32 ± 1.84 Å Å
